Two sequences from article PMC11093748, “De novo identification of CD4^+ T cell epitopes” (Nature Methods, 2024) can be followed below.

In assay [1] the test system is TCR15. Description: Single SABR-II co-incubation, NFAT-GFP Jurkat. The class given is cell-based, mouse. The following applies: TCR 15, Fig 3B, 18 h. The method, boiled down: (§1)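 Single SABR-II constructs for putative cognate epitopes were expressed in CellTrace Violet-labelled NFAT–GFP Jurkat cells and co-incubated 1:1 (5 × 10^5 each) with TCR-expressing Jurkat cells for 16–20 h. GFP (with CD69 staining when indicated) was measured by flow cytometry. Wells with GFP above the no-TCR control were scored positive.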

In assay [2] the test system is TCR4. As to the kind of experiment: Single SABR-II co-incubation, NFAT-GFP Jurkat. Type of assay: cell-based, mouse. The following applies: TCR 4. The method, boiled down:
as §1

In assay [3] the test system is GSE.20D11 TCR. Description: HLA-DQ8 SABR-II (+ HLA-A2.1 SABR) library screen, enrichment score. The following applies: combined class I and II library. Type of assay: cell-based, human. The source says: To test whether HLA-DQ8 SABR-II could be used for antigen discovery, we curated a list of insulin B, insulin C and HIP epitopes published by Wiles et al.[58] and cloned them into the DQ8 SABR-II backbone using the same pooled cloning strategy as the I-Ag7 SABR-II library (Supplementary Table 2). Furthermore, we combined SABR-I (the HLA-A*0201 library reported in our previous work[27]) and SABR-II libraries at a cellular level and screened against the GSE.20D11 TCR.
To generate the I-Ag7 restricted SABR library, we combined all Immune Epitope Database epitopes with a published immunopeptidome generated by Wan et al.[51]. Sequences were filtered remove all post-translational modifications except deamidation and HIPs and trimmed between 9–25 amino acid lengths. For the insulin C HIP and HLA-DQ8 library, non-contiguous epitopes from Wiles et al.[66] as well as all Immune Epitope Database epitopes were combined to generate the epitope list. Epitope sequences were back-translated using the backtranslate_fast.py script.
For SABR library screens, 3 × 10^6 NFAT–GFP Jurkat cells expressing the SABR library were labeled with CellTrace Violet (BioLegend) according to the manufacturer’s protocol before incubation with 3 × 10^6 Jurkat cells expressing the TCR of interest. These mixtures were incubated in a six-well plate for 16–20 h. Cells were stained with anti-CD69-APC-Cy7 where indicated (BioLegend) and the top 1–2% of GFP^+CD69^+ cells were sorted for genomic DNA extraction, indexing and sequencing (see below). Multiplexed assays were scaled on a per-TCR basis (for example 3 × 10^6 for each of three TCRs against 9 × 10^6 library cells). For single SABR assays, unless otherwise defined, 5 × 10^5 SABR expressing NFAT–GFP Jurkat cells (or 5KC cells) were labeled with CellTrace Violet (BioLegend) according to the manufacturer’s protocol before incubation with 5 × 10^5 TCR-expressing Jurkat cells (or 5KC cells) in a round-bottom 96-well plate for 16–20 h. Cells were stained with anti-CD69-APC-Cy7 when indicated and acquired on the Attune NxT flow cytometer (Thermo Fisher Scientific). All flow analysis was performed using FlowJo (BD). For Daudi cell co-culture, 1 × 10^6 Jurkat cells expressing the TCR of interest were incubated with 1 × 10^6 Daudi cells expressing a SABR of interest for 3 days. On day 3, cells were labeled with anti-RT1B-PE and anti-Fas-APC-Cy7 before being acquired on the Attune NxT flow cytometer.
Genomic DNA was extracted from sorted cells immediately after sorting, using the PureLink genomic DNA extraction kit (Life Technologies). The integrated SABR vectors were amplified with KOD polymerase (Millipore) and two rounds of amplification. In the first round, IDT-UD-SABR-C2-F and IDT-UD-SABR-C2-R primers were used to amplify the epitope. In the second round, UDI0001-R and UDI0001-F primers (representative of index 1) were used to add Illumina unique dual indexes (UDIs) to the amplicons. A different UDI was used for each sample. The reactions were pooled and purified with the NucleoSpin gel and PCR purification kit (Takara). The purified PCR product was checked before sequencing using 2% agarose gel and subjected to sequencing on a HiSeq4000 (Fulgent Genetics). Unaligned reads generated by the sequencer were stored in FASTQ files. FASTQ files were concatenated to generate one file for read1 and read2 each. The sequences were demultiplexed into individual indexes using demultiplex_dual.py. Epitopes were extracted and scored using epitope_extract_fastq_v1.1.py and merge_counts_split_v2.1.py. The ES was calculated using Microsoft Excel (Microsoft) workbooks.

Assay [4] has as its system TCR11. Description: Single SABR-II co-incubation, NFAT-GFP Jurkat. The class given is cell-based, mouse. The following applies: TCR 11. The method, boiled down:
as §1

For assay [5], the system named is TCR24. Description: Single SABR-II co-incubation, NFAT-GFP Jurkat. Type of assay: cell-based, mouse. The following applies: TCR 24, Fig 3B, 18 h. The method in brief:
as §1

For assay [6], the system named is TCR30. Description: Single SABR-II co-incubation, NFAT-GFP Jurkat. Type of assay: cell-based, mouse. The following applies: TCR 30. The method in brief: as §1
Assay [7] relates to TCR37. Description: Single SABR-II co-incubation, NFAT-GFP Jurkat. Type of assay: cell-based, mouse. The following applies: TCR 37, Fig 3B, 18 h. The method in brief: as §1
The mark [8] stands for this setting: Fig 3B, 18 h, biological replicate 1.
Where [9] appears, read: Fig 3B, 18 h, biological replicate 2.
Setting [10] is: Fig 3B, 18 h, biological replicate 3.

Consider LQTLALNAARDP, for which the “%GFP+CD69+ cells of SABR-NFAT-GFP-Jurkat cells” value (“%GFP+CD69+ cells” below) in assay [1] (biological replicate 1) worked out at 39.97%; in assay [1] (biological replicate 2), 41.2%; in assay [1] (biological replicate 3), 48.23%; in assay [2] (Ext. Data Fig. 6C, 18-20 hr, technical replicate 1), 21.3%; in assay [2] (Ext. Data Fig. 6C, 18-20 hr, technical replicate 2), 21.3%; in assay [2] (setting [8]), 36.63%. In addition, the “%GFP+CD69+ cells” value worked out at 32.63% in assay [2] (setting [9]); 39.93% in assay [2] (setting [10]); 25.9% in assay [2] (Fig 4B, technical replicate 1); 25.4% in assay [2] (Fig 4B, technical replicate 2); 42.4% in assay [2] (Fig 5C, technical replicate 1); 42.4% in assay [2] (Fig 5C, technical replicate 2).
As for SHLVEALYLVCGERG, the “enrichment in screen (in words)” value in assay [3] was “enriched at a high confidence level”. Further, the “%GFP+CD69+ cells” value came out at 7.09% in assay [4] (setting [8]); 7.41% in assay [4] (setting [9]); 7.96% in assay [4] (setting [10]); 4.58% in assay [4] (Fig 4B, technical replicate 1); 4.07% in assay [4] (Fig 4B, technical replicate 2); 14.87% in assay [5] (biological replicate 1). Further, the “%GFP+CD69+ cells” value in assay [5] (biological replicate 2) is given as 17.6%; in assay [5] (biological replicate 3), 16.8%; in assay [6] (setting [8]), 5.68%; in assay [6] (setting [9]), 7.14%; in assay [6] (setting [10]), 5.4%; in assay [6] (Fig 4B, replicate 1) it was 3.98%. Besides, the “%GFP+CD69+ cells” value is recorded as 3.65% in assay [6] (Fig 4B, replicate 2); 3.27% in assay [6] (Fig 4B, replicate 3); 31.07% in assay [7] (biological replicate 1); 38.77% in assay [7] (biological replicate 2); 34.13% in assay [7] (biological replicate 3).
